Source: US8653048B2 (Sanlugen Pharmatech Ltd., priority 2009, dated 2014)

How the values were obtained:
[1] = system: HT29: a human colon cancer cell line; assay: MTT analytical method, HT29 cells; type: cell-based; conditions: HT-29, 72 h
Source text: (§1) MTT analytical method was used to test the prodrugs for various tumor cells.
(§2) • 1) Cell lines: NCI-H460, A549, LOVO, HT-29, MDA-MB-231, SGC7901, HepG2 or BEL-7402 cell lines. Culture: adherent culturing in D-MEM (Hyclone, Inc.) containing 10% fetal calf serum. The initial cell concentration was about 3×10^5 /mL. The cell was passaged by 1:3 dilution in every 2-3 days. On the day before the test, the cell was passaged by 1:2 dilution, the cell concentration for the test was 5-10×10^5 /mL. • 2) Dissolution and dilution of compounds: according to the weight and molecular weight of the drugs provided, 100-200 μL of DMSO was added. Then normal saline was added to make the final diluted concentration of the drugs be 5 mM (Note that the final concentration of DMSO should not be more than 10%). • 3) D-MEM or RPMI 1640 cell culture medium, Gibco, Inc. • 4) Fetal calf serum Hyclone, Inc. • 5) Cell dissociation buffer, 0.25% Trypsin+0.02% EDTA. • 6) MTT solution, MTT Powder (Sigma) were dissolved in PBS buffer solution to make a solution of 5 mg/mL. The solution was filtered by a 0.22 μm micropore membrane and stored at −20° C. • 7) PBS buffer solution. • 8) 10% acidified SDS, 0.01N HCl. • 9) Centrifuge tubes, haustorial tubes etc. (BD, Inc.); 96-well plates (Costatr, Inc.) Procedures: • 1) Cell inoculation: Cells grown for 24 hours after passage, which cells were in good growth state, were used. The cells were harvested by the routine method. The cell concentration was adjust with a fresh culture solution to 2×10^5/mL (for adherent cells)-3×10^5/mL (for suspension cells). The adherent cells were inoculated at 100 μL/well and then cultivated in an incubator with 5% CO2 at 37° C. for 24 h. Thereafter the used culture solution was removed and 95 μL/well of fresh culture solution was added. The suspension cells were inoculated at 95 μL/well directly. • 2) Drugs treatment: 9 concentration grades were designed for every drug, and every concentration had 3 wells. The control group had 5 wells. The control group was tested simultaneously in each test. The final concentrations of a drug added were […], and 5 μL normal saline was added to the control group. • 3) Cell culture and detection: the cells were cultured in an incubator with 5% CO2 at 37° C. for 72 h after the drug was added, then 10 μL MTT was added to each well and the culture was continued for 4 h. 100 μL of 10% SDS (containing 0.01N HCl) was added to each well. After 24 h, the absorbance (A) of each well was determined by Bio-rad 680 ELISA with the detection wavelength of 570 nm and the reference wavelength of 630 nm. Calculation:
(§3) First, the absorbance (A) of each well was averaged (removing any data with big difference). […] A0 was the mean absorbance of the control wells. The effect curve of the drug concentration was drawn using EXCEL software and the drug concentration for 50% cell survival was calculated according to an appropriate computing methods.

[2] = system: Bel7402: a human liver cancer cell line; assay: MTT analytical method, Bel7402 cells; type: cell-based; conditions: Bel-7402, 72 h
Source text: as §1, §2, §3

[3] = system: H460 cells, a human lung cancer cell line, inoculated in nude mice; assay: H460 tumor in nude mice, oral administration of SL-01; type: in vivo, Balb/c female nude mice; conditions: for Mean Volume of Tumor: Ftorafur 120 mg/kg gastric gavage
Protocol: 1. […] Suspension formulation was prepared using 2.5% starch for intragastric administration. […] In the test, it was dissolved in normal saline and filtered with microfiltration membrane and administrated by tail vein injection. Positive control drug: Ftorafur (FT-207) produced by Qilu Pharmaceutical Co. Ltd., oral formulation.
2. Experimental animals: 50 Balb/c female nude mice at 4-5 weeks old, purchased from Peking University Health Science Center.
1. Culture of tumor cells: H460 cells were cultured in an incubator with 5% CO2 at 37° C. using RPMI-1640 nutrient solution containing 10% fetal calf serum. The cells were passaged through routine method.
2.2 Method of inoculating tumor cells in nude mice: cells were collected when they grew to about […] in culture flasks. Cells were washed twice with PBS before they were digested, then 1.5 mL of digestion solution juices was added into every bottle. They were observed under a microscope and the digestion was terminated after the cells were shed. Cell suspension was collected into 50 mL of centrifugal tube and centrifuged and washed twice with PBS. It was counted and suspended with 10 mL of normal saline to get the tumor cell suspension of inoculated nude mice. The tumor cells (1×10^7/0.2 mL) were inoculated in the left front armpits of mice. The tumor growth was observed after the inoculation.
4. Evaluation protocols for drug treating effect: these mice were weighed before drug administration and every week thereafter. The long tumor pathline (a) and the short tumor pathline (b) were measured at the same time. The formula for calculating the tumor volume is V=(a×b^2)/2. Mice were euthanized after drug administration for 3 weeks. The tumor was taken out and weighed. […] W was the tumor weight of the treatment group.

[4] = system: A549: a human lung cancer cell line; assay: MTT analytical method, A549 cells; type: cell-based; conditions: 72 h
Source text: as §1, §2, §3

SMILES | IC50 [1] [µM] | IC50 [2] [µM] | IC50 [4] [µM] | other results
CCCCCCCCCCOC(=O)c1cccc(C(=O)Nc2ccn([C@@H]3O[C@H](CO)[C@@H](O)C3(F)F)c(=O)n2)c1 [Compound 6, Decyl-3-((1-((2R,4R,5R)-3,3-difluoro-4-hydroxy-5-(hydroxymethyl)-tetrahydrofuran-2-yl)-2-oxo-1,2-dihydropyrimidin-4-yl)carbamoyl)benzoate] | 13 | 30 | – | –
O=c1[nH]c(=O)n(C2CCCO2)cc1F (stereo not drawn) [FT-207, Ftorafur, reference compound] | – | – | – | Mean Volume of Tumor ([3]; day 7): 756.7 mm^3; Mean Volume of Tumor ([3]; day 14): 1347.0 mm^3; Mean Volume of Tumor ([3]; day 18): 1526.3 mm^3; Mean Volume of Tumor ([3]; day 22): 1779.4 mm^3; Inhibition ratio (tumor weight) ([3]; Positive control (Ftorafur 120 mg/kg gavage)): 38.5%; Mean Weight of Nude Mice ([3]; Positive control (Ftorafur 120 mg/kg gavage), day 0): 19.3 g; Mean Weight of Nude Mice ([3]; Positive control (Ftorafur 120 mg/kg gavage), day 7): 19.5 g; Mean Weight of Nude Mice ([3]; Positive control (Ftorafur 120 mg/kg gavage), day 14): 19.8 g; Mean Weight of Nude Mice ([3]; Positive control (Ftorafur 120 mg/kg gavage), day 22): 19.7 g; Tumor Weight, Average Value ([3]; Positive control (Ftorafur 120 mg/kg gavage), end of the experiment): 1.26 g; efficacy by t-test, in words ([3]; positive control group (Ftorafur 120 mg/kg gavage)): significant efficacy
CCCCCCCCCCCOC(=O)c1cccc(C(=O)Nc2ccn([C@@H]3O[C@H](CO)[C@@H](O)C3(F)F)c(=O)n2)n1 [Compound 19, Undecyl-6-((1-((2R,4R,5R)-3,3-difluoro-4-hydroxy-5-(hydroxymethyl)-tetrahydrofuran-2-yl)-2-oxo-1,2-dihydropyrimidin-4-yl)carbamoyl)picolinate] | 25 | 46 | – | –
CCCCCCCCCCCCOC(=O)c1ccccc1C(=O)Nc1ccn([C@@H]2O[C@H](CO)[C@@H](O)C2(F)F)c(=O)n1 [Compound 1, Dodecyl-2-((1-((2R,4R,5R)-3,3-difluoro-4-hydroxy-5-(hydroxymethyl)-tetrahydrofuran-2-yl)-2-oxo-1,2-dihydropyrimidin-4-yl)carbamoyl)benzoate] | 13 | 20 | 23 | –
CCCCCCCCCCCOC(=O)c1ccncc1C(=O)Nc1ccn([C@@H]2O[C@H](CO)[C@@H](O)C2(F)F)c(=O)n1 [Compound 22, Undecyl-3-((1-((2R,4R,5R)-3,3-difluoro-4-hydroxy-5-(hydroxymethyl)-tetrahydrofuran-2-yl)-2-oxo-1,2-dihydropyrimidin-4-yl)carbamoyl)isonicotinate] | 30 | 16 | 8 | –
CCCCCCCCCCCOC(=O)c1ccc(C(=O)Nc2ccn([C@@H]3O[C@H](CO)[C@@H](O)C3(F)F)c(=O)n2)s1 [Compound 21, Undecyl-5-((1-((2R,4R,5R)-3,3-difluoro-4-hydroxy-5-(hydroxymethyl)-tetrahydrofuran-2-yl)-2-oxo-1,2-dihydropyrimidin-4-yl)carbamoyl)thiophene-2-carboxylate] | 24 | 43 | – | –
CCCCCCCCCCCCOC(=O)c1ccc(C(=O)Nc2ccn([C@@H]3O[C@H](CO)[C@@H](O)C3(F)F)c(=O)n2)s1 [Compound 20, Dodecyl-5-((1-((2R,4R,5R)-3,3-difluoro-4-hydroxy-5-(hydroxymethyl)-tetrahydrofuran-2-yl)-2-oxo-1,2-dihydropyrimidin-4-yl)carbamoyl)thiophene-2-carboxylate] | 6 | 14 | 13 | –
CCCCCCCCCCCOC(=O)c1cc(C(=O)Nc2ccn([C@@H]3O[C@H](CO)[C@@H](O)C3(F)F)c(=O)n2)[nH]n1 [Compound 30, Undecyl-5-((1-((2R,4R,5R)-3,3-difluoro-4-hydroxy-5-(hydroxymethyl)-tetrahydrofuran-2-yl)-2-oxo-1,2-dihydropyrimidin-4-yl)carbamoyl)-1H-pyrazole-3-carboxylate] | 4 | 16 | 14 | –
CCCCCCCCCCCOC(=O)c1ccnc(C(=O)Nc2ccn([C@@H]3O[C@H](CO)[C@@H](O)C3(F)F)c(=O)n2)c1 [Compound 28, Undecyl-2-((1-((2R,4R,5R)-3,3-difluoro-4-hydroxy-5-(hydroxymethyl)-tetrahydrofuran-2-yl)-2-oxo-1,2-dihydropyrimidin-4-yl)carbamoyl)isonicotinate] | 2 | 8 | 8 | –
CCCCCCCCCCCOC(=O)c1cc(C(=O)Nc2ccn([C@@H]3O[C@H](CO)[C@@H](O)C3(F)F)c(=O)n2)ccn1 [Compound 29, Undecyl-4-((1-((2R,4R,5R)-3,3-difluoro-4-hydroxy-5-(hydroxymethyl)-tetrahydrofuran-2-yl)-2-oxo-1,2-dihydropyrimidin-4-yl)carbamoyl)picolinate] | < 2 | 8 | 3 | –
CCCCCCCCCCCCCCCCOC(=O)c1ccccc1C(=O)Nc1ccn([C@@H]2O[C@H](CO)[C@@H](O)C2(F)F)c(=O)n1 [Compound 3, Hexadecyl-2-((1-((2R,4R,5R)-3,3-difluoro-4-hydroxy-5-(hydroxymethyl)-tetrahydrofuran-2-yl)-2-oxo-1,2-dihydropyrimidin-4-yl)carbamoyl)benzoate] | 10 | 60 | – | –
CCCCCCCCCCCOC(=O)C1CCCCC1C(=O)Nc1ccn([C@@H]2O[C@H](CO)[C@@H](O)C2(F)F)c(=O)n1 (stereo partly drawn) [Compound 36, Undecyl-2-((1-((2R,4R,5R)-3,3-difluoro-4-hydroxy-5-(hydroxymethyl)-tetrahydrofuran-2-yl)-2-oxo-1,2-dihydropyrimidin-4-yl)carbamoyl)cyclohexanecarboxylate] | > 200 | > 200 | – | –
CCCCCCCCCCCCOC(=O)c1ncccc1C(=O)Nc1ccn([C@@H]2O[C@H](CO)[C@@H](O)C2(F)F)c(=O)n1 [Compound 12, Dodecyl-3-((1-((2R,4R,5R)-3,3-difluoro-4-hydroxy-5-(hydroxymethyl)-tetrahydrofuran-2-yl)-2-oxo-1,2-dihydropyrimidin-4-yl)carbamoyl)picolinate] | 20 | 60 | – | –
CCCCCCCCCCCOC(=O)c1ccccc1C(=O)Nc1ccn([C@@H]2O[C@H](CO)[C@@H](O)C2(F)F)c(=O)n1 [Compound 2, Undecyl-2-((1-((2R,4R,5R)-3,3-difluoro-4-hydroxy-5-(hydroxymethyl)-tetrahydrofuran-2-yl)-2-oxo-1,2-dihydropyrimidin-4-yl)carbamoyl)benzoate] | > 200 | 162 | – | –
CCCCCCCCCCCOC(=O)c1cccc(C(=O)Nc2ccn([C@@H]3O[C@H](CO)[C@@H](O)C3(F)F)c(=O)n2)c1 [Compound 7, Undecyl-3-((1-((2R,4R,5R)-3,3-difluoro-4-hydroxy-5-(hydroxymethyl)-tetrahydrofuran-2-yl)-2-oxo-1,2-dihydropyrimidin-4-yl)carbamoyl)benzoate] | 80 | 125 | – | –
